Reference: BindingDB's records for patent US20250382298 (Suzhou Genhouse Bio Co., 2025)

molecular target: T1, Kinesin-like protein KIF18A (Homo sapiens, UniProt Q8NI77); assay: Inhibitory Activity Assay
T1 sequence (Q8NI77 whole entry): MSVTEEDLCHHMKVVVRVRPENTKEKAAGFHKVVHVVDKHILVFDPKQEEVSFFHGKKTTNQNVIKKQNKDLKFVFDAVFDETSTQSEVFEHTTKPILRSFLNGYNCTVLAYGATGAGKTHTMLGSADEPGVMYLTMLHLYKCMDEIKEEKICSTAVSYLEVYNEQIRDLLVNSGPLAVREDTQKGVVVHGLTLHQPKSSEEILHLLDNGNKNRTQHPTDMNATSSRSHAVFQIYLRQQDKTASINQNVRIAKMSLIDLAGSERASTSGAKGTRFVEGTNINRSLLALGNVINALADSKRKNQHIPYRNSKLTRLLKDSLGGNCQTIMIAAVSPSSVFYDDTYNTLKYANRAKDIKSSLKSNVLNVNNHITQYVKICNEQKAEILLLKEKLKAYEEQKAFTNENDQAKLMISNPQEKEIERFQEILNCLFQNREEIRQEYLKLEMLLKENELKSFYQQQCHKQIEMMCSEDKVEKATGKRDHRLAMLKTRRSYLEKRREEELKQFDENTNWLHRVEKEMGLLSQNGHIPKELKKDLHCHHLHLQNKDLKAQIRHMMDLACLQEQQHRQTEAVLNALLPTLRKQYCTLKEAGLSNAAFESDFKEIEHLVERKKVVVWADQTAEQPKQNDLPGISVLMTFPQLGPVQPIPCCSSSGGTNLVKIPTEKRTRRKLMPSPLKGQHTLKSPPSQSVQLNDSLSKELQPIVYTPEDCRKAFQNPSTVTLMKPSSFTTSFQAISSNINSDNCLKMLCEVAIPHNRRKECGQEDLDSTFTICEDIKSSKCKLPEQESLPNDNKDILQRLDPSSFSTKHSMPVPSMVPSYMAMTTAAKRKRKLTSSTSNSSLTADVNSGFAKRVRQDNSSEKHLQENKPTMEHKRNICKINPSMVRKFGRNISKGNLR
Method: In this experiment, an ADP-Glo kit was used to detect the inhibitory activity of the compounds against KIF18A. Each compound was prepared into a 10 mM stock solution with DMSO, which was then diluted at 1:5 to obtain 9 gradients with the initial final concentration set at 10 μM. Meanwhile, a control group and a blank group were also set up. The reaction buffer consisted of 15 mM Tris (pH 7.5), 10 mM MgCl2, and 0.01% Pluronic F-68. […] Finally, the ADP-Glo reagent was added to detect the luminescence intensity, where the luminescence intensity is directly proportional to the ADP content. Inhibition rate (%)=(1−Sample signal)/DMSO signal×100. Sample signal is the value of the compound group, and DMSO signal is the value of the DMSO control group. Then, the inhibition rate at each concentration was calculated, and the IC50 was determined by fitting using the GraphPadPrism 7.0 software.

| Compound | IC50 [nM] |
| --- | --- |
| CS(=O)(=O)Nc1ccc(C(=O)Nc2cn3ccnc3c(N3CCC(F)(F)CC3)n2)c(N2CC3CCC(C3)C2)c1 [US20250382298, Compound 19] | 26.8 |
| O=C(Nc1cc2cccnc2c(N2CCC(F)(F)CC2)n1)c1ccc(NS(=O)(=O)CCO)cc1N1CCC2(CC1)CC2 [US20250382298, Compound 21] | 10.7 |
| O=C(Nc1cn2ccnc2c(N2CCC3(CC2)CC3)n1)c1ccc(NS(=O)(=O)CCO)cc1N1CCC2(CC1)CC2 [US20250382298, Compound 31] | 55.3 |
| CS(=O)(=O)Nc1ccc(C(=O)Nc2cc3cccnc3c(N3CCC(F)(F)CC3)n2)c(N2CCC3(CC2)CC3)c1 [US20250382298, Compound 32] | 117 |
| CS(=O)(=O)Nc1ccc(C(=O)Nc2cc3cccnc3c(N3CCC(F)(F)CC3)n2)c(N2CC3CCC(C3)C2)c1 [US20250382298, Compound 33] | 111 |
| O=C(Nc1cn2c(F)cnc2c(N2CCC(F)(F)CC2)n1)c1ccc(NS(=O)(=O)CCO)cc1N1CCC2(CC1)CC2 [US20250382298, Compound 34] | 44.3 |
| O=C(Nc1cc2nccnc2c(N2CCC(F)(F)CC2)n1)c1ccc(NS(=O)(=O)CCO)cc1N1CCC2(CC1)CC2 [US20250382298, Compound 39] | 32.2 |
| O=C(Nc1cn2c(F)cnc2c(N2CCC(F)(F)CC2)n1)c1ccc(NS(=O)(=O)CCO)cc1N1CC2CCC(C2)C1 [US20250382298, Compound 51] | 10 |
| CS(=O)(=O)Nc1ccc(C(=O)Nc2cc3nccnc3c(N3CCC(F)(F)CC3)n2)c(N2CC3CCC(C3)C2)c1 [US20250382298, Compound 72] | 134 |
